How the values were obtained:
[1] = molecular target: T1, TLR2 (Homo sapiens, UniProt O60603); experiment: NF-kB luciferase reporter assay in TLR2-transfected HEK293 cells; assay type: cell-based
T1 construct: FLAG; host or cells: HEK293
Procedure: HEK293 cells were plated onto 24-well plates (2×10^5 cells/well) and cotransfected with 0.1 μg of pFLAG-TLR2, 0.01 μg of pNF-kB-luc, and 0.01 μg of the pRL-TK internal control plasmid (Promega, Madison, Wis.) using lipofectamine 2000 (Invitrogen, Carlsbad, Calif.). After 24 h, the transfected cells were stimulated with various synthetic lipopeptide or recombinant proteins for 24 h. The cells were lysed so that the luciferase activity could be measured using a dual-luciferase reporter assay system (Promega Co., Madison, Wis.). Firefly-luciferase activities were related to Renilla-luciferase activities for the purposes of normalization. Both firefly and Renilla luciferase activities were monitored using a Berthold Orion II luminometer (Pforzheim, Germany).

[2] = tested on: TC-1 cells (expressed HPVE7 cells); experiment: TC-1 tumor growth inhibition, E7-derived peptide RAH with Pam3 or lipo-Nter (Example 7); assay type: in vivo, mouse; conditions: mice with TC-1 tumors, immunized once subcutaneously at day 7, combined with 20 μg E7-derived peptide RAH
Procedure: Six mice (6-8 weeks old) were inoculated with 2×10^5 TC-1 cells (expressed HPVE7 cells) at day 0. After 7 days, mice were immunized once subcutaneously with 20 μg of E7-derived peptide in the presence of tripamitoylated peptide Pam3 or lipo-Nter. The tumor size was monitored every 2-3 days until tumor volumes higher than 3000 mm^3. The tumor volumes were calculated based on the formula length×width×width/2.

[3] = tested on: rE7m; experiment: Anti-E7m IgG ELISA after immunization of mice with rE7m with or without lipo-Nter (Example 5); assay type: in vivo, mouse; conditions: subcutaneous, combined with 20 μg rE7m, two immunizations at two-week intervals
Procedure: Five mice (6-8 weeks old) were immunized subcutaneously with 20 μg of rE7m with or without lipo-Nter. The mice were given two immunizations at two-week intervals. Blood was collected from each mouse at different time points as indicated. Sera were prepared and stored at −80° C. until use. The level of anti-E7m IgG in the serum samples was determined by titrating the samples in 96-well plates coated with purified rE7m. Bound IgG was detected with horseradish peroxidase-conjugated goat anti-mouse IgG Fc. After the addition of TMB, the absorbance was measured with an ELISA reader at 450 nm.

[4] = tested on: bone marrow-derived dendritic cells; experiment: lipo-Nter stimulation of BM-DCs, cytokine ELISA (Example 4); assay type: cell-based, mouse; conditions: lipo-Nter 100 nM
Procedure: BM-DCs were harvested as previously described (Lutz et al., 1999). Briefly, femurs and tibiae of 6-8 week old female mice were removed, and the bone marrow cells were dispersed by vigorous pipetting. After removing red blood cells with lysis buffer, the isolated bone marrow cells were resuspended to a density of 2−5×10^5/ml cells with RPMI-10: RPMI-1640 (GIBCO BRL, Grand Island, N.Y.) supplemented with 10% P/S, L-glutamine (2 mM, Sigma), 2-mercaptoethanol (50 μM, Sigma), and 10% heat-inactivated FBS. On days 0, 3, and 6, bone marrow cells were added to Petri dishes containing 200 U/mL (20 ng/ml) of recombinant mouse granulocyte macrophage colony stimulating factor (MoGM-CSF, Peprotech, Rocky Hill, N.J.) in RPMI-10. At day 6, either LPS (0.01 μg/ml), lipo-Nter (100 nM) was added. Generally, immature dendritic cells made up 70% of the total cell population. The production of cytokines by BM-DCs was determined using ELISA. Briefly, 100 μL of anti-cytokine (10 μg/ml of IL-12p40, TNF-α) antibodies (R&D system Inc. Minneapolis, Minn.) were coated onto 96-well microtiter plates with 0.1 M carbonate buffer, pH 9.6, following overnight incubation at 4° C. […] The plates were read at 450 nm using an ELISA plate reader (Molecular Devices, CA). The production levels of the cytokines were calculated by subtracting the values obtained for non-stimulated groups.

[5] = tested on: TC-1 cells (expressed HPVE7 cells); experiment: TC-1 tumor growth inhibition, rE7m with or without lipo-Nter (Example 6); assay type: in vivo, mouse; conditions: mice with TC-1 tumors, immunized once subcutaneously at day 7, combined with 20 μg rE7m
Procedure: In this example, assays were conducted to examiner whether the lipo-Nter combined with rE7m can increase the tumor growth inhibition ability. Six mice (6-8 weeks old) were inoculated with 2×10^5 TC-1 cells (expressed HPVE7 cells) at day 0. After 7 days, mice were immunized once subcutaneously with 20 μg of rE7m with or without lipo-Nter. The tumor size was monitored every 2-3 days until tumor volumes higher than 3000 mm^3. The tumor volumes were calculated based on the formula length×width×width/2.

[6] = tested on: BM-DCs; experiment: Real-time quantitative PCR of cytokine/chemokine gene expression in BM-DCs; assay type: cell-based, mouse; conditions: 100 nM, 2 or 4 hours
Procedure: The BM-DCs were purified using the Dynabeads® Mouse DC Enrichment Kit (Invitrogen Dynal AS, Oslo, Norway) according to the manufacturer's instructions to 60 90%. The purified BM-DCs were stimulated using medium alone, or with 100 nM of Pam3, BPPcysPEG or rlipo-D1E3, at 37° C. for 2 or 4 hours. Total RNA was extracted from the isolated cells using the RNeasy mini kit (Qiagen, Valencia, Calif.) following the manufacturer's instructions. RNA (0.5-1 μg) was reverse-transcribed to cDNA using an oligo-dT primer in a 20 μl volume and SuperScript III RT (Invitrogen, Carlsbad, Calif.). The mouse Universal Probe Library (UPL) set (Roche, Mannheim, Germany) was used to perform the real-time qPCR assay for gene expression in isolated cell populations (Liu et al. (2007) J Leukoc Biol 82, 354-360.).
The reaction mixture contained 5 ng cDNA, 0.2 μM primers, and LightCycler 480 Probe Master (Roche), and the reagents were reacted in a LightCycler 480 system (Roche). All qPCRs were carried out using an initial denaturation step at 95° C. for 10 min, followed by 45 cycles of 95° C. for 10 s, 60° C. for 20 s, and 72° C. for 2 s. Target gene expression was normalization to HPRT gene expression. The relative gene expression levels were calculated by comparing the expression levels after treatment with various stimulators to those obtained using medium alone. […]

[7] = tested on: p38, ERK1/2 and JNK1/2 in BM-DCs; experiment: Western blot analysis of p38, ERK1/2, JNK1/2 phosphorylation in BM-DCs; assay type: cell-based, mouse; conditions: 100 nM
Procedure: The BM-DCs were grown in DMEM or RPMI medium without FBS for 16-18 h and then stimulated with 100 nM of the indicated lipopeptides or lipoprotein for 10, 20, 40, 60, 90, or 120 minutes at 37° C. These treated BM-DCs were then lysed in 25 mM HEPES, 150 mM NaCl, 1 mM EDTA, 1 mM EGTA, 10% glycerol, 1% Triton X-100, 10 mM sodium pyrophosphate, 20 mM b-glycerophosphate, Na3VO4, 10 mM NaF, […], and 1 mM PMSF. The concentration of the protein lysates was determined using the BCA protein assay kit (Pierce, Rockford, Ill.). Fifty microgram of lysates were electrophoresed per lane of a 10% SDS-PAGE gel. After the resolved lysates in the gel were transferred to a PVDF membrane, the membranes were blocked with 5% milk and 0.05% Tween-20. The membranes were incubated with antibodies against p38, pp38, pERK1/2, or pJNK1/2 in 5% w/v BSA, 1×PBS and 0.1% Tween-20. Anti-p38 antibody was used as a control for the protein loading level in each lane. The membrane was developed using the LumiGLO® Chemiluminescent Substrate system (Millipore, Billerica, Mass.). The total p38 level was used for normalization, and the induction of pp38 was determined using image analysis software (Image J1.41, NIH, Bethesda, Md.). Relative phosphorylation was calculated as the (density of pp38/density of p38)×100.

T1 sequence (O60603 21-784): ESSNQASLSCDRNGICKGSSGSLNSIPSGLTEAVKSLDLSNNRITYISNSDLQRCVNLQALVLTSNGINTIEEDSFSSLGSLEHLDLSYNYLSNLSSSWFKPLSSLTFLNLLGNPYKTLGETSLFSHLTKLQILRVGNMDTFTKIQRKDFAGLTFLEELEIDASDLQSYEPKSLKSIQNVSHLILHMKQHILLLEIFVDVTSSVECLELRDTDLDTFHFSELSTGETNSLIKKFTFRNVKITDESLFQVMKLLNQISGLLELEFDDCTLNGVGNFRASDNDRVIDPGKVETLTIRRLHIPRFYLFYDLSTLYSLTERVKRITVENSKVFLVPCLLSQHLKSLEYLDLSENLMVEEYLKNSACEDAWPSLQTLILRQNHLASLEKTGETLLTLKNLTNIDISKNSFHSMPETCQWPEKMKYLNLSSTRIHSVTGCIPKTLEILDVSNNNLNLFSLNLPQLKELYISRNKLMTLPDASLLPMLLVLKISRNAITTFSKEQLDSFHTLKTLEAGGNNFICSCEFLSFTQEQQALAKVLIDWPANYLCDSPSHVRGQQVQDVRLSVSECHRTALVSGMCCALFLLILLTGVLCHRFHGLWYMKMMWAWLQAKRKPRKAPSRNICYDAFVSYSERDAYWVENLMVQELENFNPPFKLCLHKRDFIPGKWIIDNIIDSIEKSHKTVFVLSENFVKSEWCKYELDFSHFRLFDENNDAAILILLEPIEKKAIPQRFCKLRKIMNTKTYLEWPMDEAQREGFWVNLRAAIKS

N-acyl-S-diacylglyceryl-CSQEAK [lipo-Nter]
activation of NF-κB signaling through TLR2 ([1]; purified lipo-Nter): activate NF-κB signaling through TLR2 | tumor growth inhibition (tumor volume) [2]: could inhibit tumor growth | anti-E7 antibody (anti-E7m IgG in serum) [3]: enhanced anti-E7 antibody | secretion of TNF-α and IL-12p40 [4]: stimulated bone marrow-derived dendritic cells to secrete TNF-α and IL-12p40 | anti-tumor activity (tumor volume) [5]: anti-tumor activity stronger than that of rE7m alone

S-[2,3-bispalmitoyloxy-[2R]-propyl-[R]-cysteinyl-amido polyethyleneglycol [BPPcysPEG]
NF-κB signaling activities ([1]; at 0.1 or 1 nM concentration, compared among Pam3, rlipo-D1E3 and BPPcysPEG): highest NF-κB signaling activities | dose response of TLR2-dependent NF-κB activation ([1]; range from 1 μM to 100 nM): stronger activation of TLR2 | IL-10, TGFβ and CXCL1 expression levels ([6]; compared among Pam3, BPPcysPEG and rlipo-D1E3): similar | expression levels of IL-13 ([6]; compared to Pam3): higher expression levels | time after which phosphorylation dropped down to basal levels [7]: 60 min | level of the phosphorylation of p38, ERK1/2, JNK1/2 ([7]; compared with Pam3 and rlipo-D1E3): higher level | time of highest induced level of phosphorylation of p38, ERK1/2 and JNK1/2 ([7]; measured 0-120 min): 10 min

Source: patent publication US8466259B2, “Adjuvants” (National Health Research Institutes, priority 2007, dated 2013)
